In ChEMBL document CHEMBL5042529, “One-Pot Enzymatic Synthesis and Biological Evaluation of Ganglioside GM3 Derivatives as Potential Cancer Immunotherapeutics” (J Med Chem, 2022):

Tests used:
[1] = Cytotoxicity against human HeLa cells measured after 24 hrs by MTT assay; format: toxicity, cell-based
[2] = Cytotoxicity against mouse Neuro2a cells measured after 24 hrs by MTT assay; format: toxicity, cell-based, N2a
[3] = Cytotoxicity against CHO cells measured after 24 hrs by MTT assay; format: toxicity, cell-based, Cricetulus griseus; details: Chinese hamster
[4] = Cytotoxicity against human A-431 cells measured after 24 hrs by MTT assay; format: toxicity, cell-based
[5] = Cytotoxicity against rat PC-12 cells measured after 24 hrs by MTT assay; format: toxicity, cell-based

Measured: IC50 at 24 h

CCCCCCCCCCCCC/C=C/[C@@H](O)[C@H](CO[C@@H]1O[C@H](CO)[C@@H](O[C@@H]2O[C@H](CO)[C@H](O)[C@H](O[C@]3(C(=O)O)C[C@H](O)[C@@H](NC(=O)c4cc(C)cc(C)c4)[C@H]([C@H](O)[C@H](O)CO)O3)[C@H]2O)[C@H](O)[C@H]1O)NC(=O)CCCCCCCCCCCCCCCCC
> 200 µM: all assays above

CCCCCCCCCCCCC/C=C/[C@@H](O)[C@H](CO[C@@H]1O[C@H](CO)[C@@H](O[C@@H]2O[C@H](CO)[C@H](O)[C@H](O[C@]3(C(=O)O)C[C@H](O)[C@@H](NC(=O)c4cccc([N+](=O)[O-])c4)[C@H]([C@H](O)[C@H](O)CO)O3)[C@H]2O)[C@H](O)[C@H]1O)NC(=O)CCCCCCCCCCCCCCCCC
> 200 µM: all assays above

CCCCCCCCCCCCC/C=C/[C@@H](O)[C@H](CO[C@@H]1O[C@H](CO)[C@@H](O[C@@H]2O[C@H](CO)[C@H](O)[C@H](O[C@]3(C(=O)O)C[C@H](O)[C@@H](NC(C)=O)[C@H]([C@H](O)[C@H](O)CO)O3)[C@H]2O)[C@H](O)[C@H]1O)NC(=O)CCCCCCCCCC
> 200 µM: all assays above

CCCCCCCCCCCCC/C=C/[C@@H](O)[C@H](CO[C@@H]1O[C@H](CO)[C@@H](O[C@@H]2O[C@H](CO)[C@H](O)[C@H](O[C@]3(C(=O)O)C[C@H](O)[C@@H](NC(=O)c4ccccc4)[C@H]([C@H](O)[C@H](O)CO)O3)[C@H]2O)[C@H](O)[C@H]1O)NC(=O)CCCCCCCCCCCCCCCCC
> 200 µM: all assays above

CCCCCCCCCCCCC/C=C/[C@@H](O)[C@H](CO[C@@H]1O[C@H](CO)[C@@H](O[C@@H]2O[C@H](CO)[C@H](O)[C@H](O[C@]3(C(=O)O)C[C@H](O)[C@@H](NC(=O)c4ccc(I)cc4)[C@H]([C@H](O)[C@H](O)CO)O3)[C@H]2O)[C@H](O)[C@H]1O)NC(=O)CCCCCCCCCCCCCCCCC
> 200 µM: all assays above

CCCCCCCCCCCCC/C=C/[C@@H](O)[C@H](CO[C@@H]1O[C@H](CO)[C@@H](O[C@@H]2O[C@H](CO)[C@H](O)[C@H](O[C@]3(C(=O)O)C[C@H](O)[C@@H](NC(=O)c4ccc(F)cc4)[C@H]([C@H](O)[C@H](O)CO)O3)[C@H]2O)[C@H](O)[C@H]1O)NC(=O)CCCCCCCCCCCCCCCCC
> 200 µM: all assays above

CCCCCCCCCCCCC/C=C/[C@@H](O)[C@H](CO[C@@H]1O[C@H](CO)[C@@H](O[C@@H]2O[C@H](CO)[C@H](O)[C@H](O[C@]3(C(=O)O)C[C@H](O)[C@@H](NC(=O)c4cccc(Br)c4)[C@H]([C@H](O)[C@H](O)CO)O3)[C@H]2O)[C@H](O)[C@H]1O)NC(=O)CCCCCCCCCCCCCCCCC
> 200 µM: all assays above
